{"source": "patent US7851006B2", "about": "“Taste potentiator compositions and beverages containing same” (Cadbury Adams USA LLC, priority 2005, dated 2010)", "key": {"[1]": {"system": "perceived sweetness of pH 3.2 buffered sucrose solution (expert panel members)", "assay": "Sucrose Equivalent Value (SEV): expert panel matches test solution to stock sucrose solutions", "format": "in vivo", "details": "for sweetness enhancement of sucrose solutions by different forms of 2,4-DHB: 500 ppm in pH 3.2 buffered 0%, 3%, 5%, 7% and 9% sucrose; for SEV (%): 500 ppm potentiator in pH 3.2 buffered solution containing 5% sucrose; for effect on sweetness of the sucrose solution (dose response curve): 0 to 1000 ppm in pH 3.2 buffered 5% sucrose solution", "method": "(§1) One method of measuring the perceived sweetness of a solution is to match it with a stock sucrose solution of known concentration. In the present experiments, the compound of interest is added at a predetermined concentration to a pH 3.2 buffered solution containing 5% sucrose. A number of expert panel members then taste the solution and compare it to a battery of stock sucrose solutions ranging from 3% to 15% at increments of 1%. Each panel member decides which sucrose solution is equisweet with the solution containing the compound of interest. The mean value is then reported as the SEV. Results are reported to 1 decimal place.\nIn accordance with this methodology, 3-HB was added to a pH 3.2 buffered solution containing 5% sucrose to produce solutions containing from 0 to 1000 ppm 3-HB in 100 ppm increments. […] From FIG. 1 it is apparent that as the dosage of 3-HB increases so does the sweetness of the resultant solution. However the effect is non-linear with each incremental addition having a diminishing effect. The maximum sweetness attainable would appear to be about 7.9% SEV (based on a 5% sucrose solution).\nThe same methodology as described in Example 1 was repeated with 2,4-DHB in place of 3-HB, to produce the dose response curve for 2,4-DHB (FIG. 2). […] The maximum attainable sweetness would appear to be about 6.7% SEV (based on a 5% sucrose solution).\n500 ppm of a sweetener potentiator was added to a pH 3.2 buffered solution containing 5% sucrose and the SEV of the resultant solution determined.\n500 ppm of the sweetener potentiator then was added to a 5% sucrose solution containing 500 ppm 3-HB to produce a series of solutions. […] The use of 500 ppm of 3-HB alone results in an SEV of 6.9% whereas in all cases but two (2,4-DHB and 3,4-DHB) the addition of a second sweetener potentiator results in a little change or even a decrease in SEV. This is highly surprising considering that all of the potentiators are shown to have SEVs greater than 5%.\nThe methodology was repeated to produce a series of solutions containing 500 ppm 2,4-DHB and 500 ppm of a second sweetener potentiator.\n500 ppm of 3-HB, 500 ppm of 2,4-DHB and 500 ppm of 3,4-dihydroxybenzoic acid (3,4-DHB) were added to a pH 3.2 buffered solution containing 5% sucrose and the SEV determined. The results are shown in FIG. 7 together with other combinations of 3-HB, 2,4-DHB and 3,4-DHB for comparison. The solution containing the combination of 3-HB and 2,4-DHB (hatched) has a much higher SEV (8.7%) than the combination of either 3,4-DHB and 3-HB (7.6%) or the combination of 3,4-DHB and 2,4-DHB (6.8%). The three-way combination of the embodiment (hatched) is better still with an SEV of 9.8%.\npH 3.2 buffered solutions were prepared containing 0%, 3%, 5%, 7% and 9% sucrose. 500 ppm of 2,4-DHB acid, 500 ppm of the sodium salt of 2,4-DHB and 500 ppm of the potassium salt of 2,4-DHB were added individually to each of the sucrose solutions. The SEV for each of the solutions was then determined.\n500 ppm of 3-aminobenzoic acid and 500 ppm of 4-aminobenzoic acid were individually added to separate pH 3.2 buffered solutions containing 5% sucrose and the SEVs of the resultant solutions were determined. The SEV of 3-aminobenzoic acid was about 7%, i.e., increased the sweetness intensity of 5% sucrose to about 7%. The SEV of 4-aminobenzoic acid was about 5.5-6%, i.e., increased the sweetness intensity of 5% sucrose to about 5.5-6%."}, "[2]": {"system": "perceived sweetness of non-sucrose sweetener solutions (SEV about 5%)", "assay": "SEV of non-sucrose sweetener solutions after addition of potentiators", "format": "in vivo", "details": "500 ppm 3-HB alone versus with 500 ppm 2,4-DHB, pH 3.2", "method": "as §1\nThe SEV of each sweetener solution was then evaluated after the addition 500 ppm of 3-HB, the addition of 500 ppm of 2,4-DHB and the addition of both 500 ppm 3-HB and 2,4-DHB."}, "[3]": {"system": "sweetness perception of sweeteners", "details": "cited from earlier work"}}}
{"smiles": "O=C([O-])c1ccc(O)cc1O.[Na+]", "note": "[sodium salt of 2,4-DHB]", "values": [{"measurement": "sweetness enhancement of sucrose solutions by different forms of 2,4-DHB", "setting": "[1]", "result": "enhances the sweetness of the sucrose solution in every case"}]}
{"smiles": "O=C(O)c1cc(O)c(O)c(O)c1", "note": "[3,4,5-tryhydroxybenzoic acid (3,4,5-THB), 3,4,5-tryhydroxybenzoic acid]", "values": [{"measurement": "SEV (%)", "setting": "[1]", "result": 5.1, "unit": "%"}]}
{"smiles": "O=C(O)c1cccc(O)c1", "note": "[3-hydroxybenzoic acid (3-HB), 3-hydroxybenzoic acid]", "values": [{"measurement": "effect on sweetness of the sucrose solution (dose response curve)", "setting": "[1]", "result": "enhances the sweetness of the sucrose solution"}, {"measurement": "SEV of solution containing 500 ppm 2,4-DHB and 500 ppm of a second sweetener potentiator", "setting": "[1]; second potentiator 500 ppm added to 500 ppm 2,4-DHB, 5% sucrose", "result": "significant positive effect"}, {"measurement": "sweetness enhancement of saccharin solution, alone versus combination", "setting": "[2]", "result": "enhances the sweetness to a greater degree alone than in combination with 2,4-DHB"}, {"measurement": "effect on sweetness of sucrose, aspartame and saccharin", "setting": "[3]; pH 2.0 to 5.5, EP 0132444 and US 4,627,987", "result": "enhance sweetness"}]}
{"smiles": "O=C([O-])c1ccc(O)cc1O.[K+]", "note": "[potassium salt of 2,4-DHB]", "values": [{"measurement": "sweetness enhancement of sucrose solutions by different forms of 2,4-DHB", "setting": "[1]", "result": "enhances the sweetness of the sucrose solution in every case"}]}
{"smiles": "O=C(O)c1ccc(O)c(O)c1", "note": "[3,4-dihydroxybenzoic acid (3,4-DHB), 3,4-dihydroxybenzoic acid]", "values": [{"measurement": "SEV (%)", "setting": "[1]", "result": 6.4, "unit": "%"}]}
{"smiles": "O=C(O)c1ccc(O)cc1O", "note": "[2,4-dihydroxybenzoic acid (2,4-DHB), 2,4-dihydroxybenzoic acid]", "values": [{"measurement": "effect on sweetness of the sucrose solution (dose response curve)", "setting": "[1]", "result": "enhances the sweetness of the sucrose solution"}, {"measurement": "sweetness enhancement of sucrose solutions by different forms of 2,4-DHB", "setting": "[1]", "result": "enhances the sweetness of the sucrose solution in every case"}, {"measurement": "effect on sweetness intensity of sucralose and aspartame", "setting": "[3]; FIGS. 1 and 2, Tables 1 and 2 of US 6,461,658", "result": "slightly inhibitory effect"}, {"measurement": "listed taste character", "setting": "[3]; US 5,232,735", "result": "substantially tasteless sweetness inhibitor"}, {"measurement": "effect on sweetness delivery profile of sucralose", "setting": "[3]; US 6,461,658", "result": "significantly reducing the length of time during which sucralose sweetness is perceived"}, {"measurement": "effect on sweetness delivery profile of aspartame", "setting": "[3]; US 6,461,658, compared with effect on sucralose", "result": "The same effect is not observed for aspartame"}, {"measurement": "effect on sweetness of aspartame", "setting": "[3]; WO99/15032", "result": "increase sweetness synergistically"}, {"measurement": "effect with alitame, Ace-K, saccharin or a mixture of aspartame and Ace-K", "setting": "[3]; WO99/15032, compared with effect on aspartame", "result": "same effect is not observed"}, {"measurement": "effect on sweetness of 5% sucrose solution", "setting": "[3]; addition of 0.2% 2,4-DHB, Canadian Patent No. 1208966", "result": "increase in sweetness"}]}
